Values after ≈ are worked out from the molar mass of the structure shown.
Columns and labels:
Candida albicans [1] = test: Antifungal activity against fluconazole-resistant Candida albicans 102 assessed as inhibition of fungal growth measured for 24 hrs by CLSI based microdilution analysis; assay type: functional
Nakaseomyces glabratus = test: Antifungal activity against Candida glabrata ATCC 15126 assessed as reduction in fungal growth incubated for 24 hrs by CLSI based microdilution analysis; assay type: functional
[2] = test system: Meyerozyma guilliermondii; test: Antifungal activity against Meyerozyma guilliermondii ATCC 6260 assessed as reduction in fungal growth incubated for 24 hrs by CLSI based microdilution analysis; assay type: functional
Candida albicans [3] = test: Induction of resistance development in Candida albicans SC5314 assessed as increase in MIC treated over 8 serial passages by microdilution assay; assay type: functional
CYP3A4 = test: Selectivity index, ratio of MIC80 for antifungal activity against Candida albicans to IC50 for inhibition of CYP3A4 in human liver microsomes; assay type: toxicity; details: read-out: Selectivity Index
Aspergillus fumigatus = test: Antifungal activity against Aspergillus fumigatus CGMCC3 7795 assessed as reduction in fungal growth incubated for 48 hrs by CLSI based microdilution analysis; assay type: functional
Candida albicans [4] = test: Antifungal activity against fluconazole-resistant Candida albicans 13 assessed as inhibition of fungal growth measured for 24 hrs by CLSI based microdilution analysis; assay type: functional
Candida parapsilosis = test: Antifungal activity against Candida parapsilosis ATCC 22019 assessed as reduction in fungal growth incubated for 24 hrs by CLSI based microdilution analysis; assay type: functional; details: Lodderomyces parapsilosis
Cryptococcus neoformans = test: Antifungal activity against Cryptococcus neoformans CGMCC3 1563 assessed as reduction in fungal growth incubated for 72 hrs by CLSI based microdilution analysis; assay type: functional
Candida albicans [5] = test: Antifungal activity against fluconazole-resistant Candida albicans 112869 assessed as inhibition of fungal growth measured for 24 hrs by CLSI based microdilution analysis; assay type: functional
Candida albicans [6] = test: Antifungal activity against fluconazole-resistant Candida albicans 901 assessed as inhibition of fungal growth measured for 24 hrs by CLSI based microdilution analysis; assay type: functional
[7] = Hemolytic activity in mouse RBC assessed as hemolysis at 100 microg/ml incubated for 60 mins relative to control; assay type: toxicity, cell-based, Erythrocyte; details: red blood cells (erythrocytes), at 100 µg/mL, read-out: Activity
Candida albicans [8] = test: Antifungal activity against fluconazole-resistant Candida albicans 15 assessed as inhibition of fungal growth measured for 24 hrs by CLSI based microdilution analysis; assay type: functional
Candida albicans [9] = test: Antifungal activity against fluconazole-resistant Candida albicans 24D assessed as inhibition of fungal growth measured for 24 hrs by CLSI based microdilution analysis; assay type: functional
Candida tropicalis = test: Antifungal activity against Candida tropicalis ATCC 750 assessed as reduction in fungal growth incubated for 24 hrs by CLSI based microdilution analysis; assay type: functional
[10] = biological target: T1, Lanosterol 14-alpha demethylase (Candida albicans (strain SC5314 / ATCC MYA-2876) (Yeast), UniProt P10613); test: Inhibition of CYP51 in Candida albicans […] assessed as decrease in unknown sterol biosynthesis level at 1 times MIC80 incubated for 16 hrs by GC-MS analysis relative to control
Candida albicans [11] = test: Antifungal activity against Candida albicans SC5314 assessed as reduction in fungal growth incubated for 24 hrs by CLSI based microdilution analysis; assay type: functional
Candida albicans [12] = test: Induction of resistance development in Candida albicans SC5314 assessed as fold increase in MIC treated over 20 serial passages by microdilution assay; assay type: functional
[13] = biological target: T1, Lanosterol 14-alpha demethylase; test: Inhibition of CYP51 in Candida albicans […] assessed as decrease in ergosterol biosynthesis level at 1 times MIC80 incubated for 16 hrs by GC-MS analysis (Rvb=67.2%)
Candida albicans [14] = test: Potency index, ratio of voriconazole MIC80 to test compound MIC for antifungal activity against Candida albicans SC5314 assessed as reduction in fungal growth incubated for 24 hrs by CLSI based microdilution analysis; assay type: functional
Candida albicans [15] = test: Potency index, ratio of itraconazole MIC80 to test compound MIC for antifungal activity against Candida albicans SC5314 assessed as reduction in fungal growth incubated for 24 hrs by CLSI based microdilution analysis; assay type: functional
Candida albicans [16] = test: Potency index, ratio of fluconazole MIC80 to test compound MIC for antifungal activity against Candida albicans SC5314 assessed as reduction in fungal growth incubated for 24 hrs by CLSI based microdilution analysis; assay type: functional

T1 sequence (P10613 whole entry): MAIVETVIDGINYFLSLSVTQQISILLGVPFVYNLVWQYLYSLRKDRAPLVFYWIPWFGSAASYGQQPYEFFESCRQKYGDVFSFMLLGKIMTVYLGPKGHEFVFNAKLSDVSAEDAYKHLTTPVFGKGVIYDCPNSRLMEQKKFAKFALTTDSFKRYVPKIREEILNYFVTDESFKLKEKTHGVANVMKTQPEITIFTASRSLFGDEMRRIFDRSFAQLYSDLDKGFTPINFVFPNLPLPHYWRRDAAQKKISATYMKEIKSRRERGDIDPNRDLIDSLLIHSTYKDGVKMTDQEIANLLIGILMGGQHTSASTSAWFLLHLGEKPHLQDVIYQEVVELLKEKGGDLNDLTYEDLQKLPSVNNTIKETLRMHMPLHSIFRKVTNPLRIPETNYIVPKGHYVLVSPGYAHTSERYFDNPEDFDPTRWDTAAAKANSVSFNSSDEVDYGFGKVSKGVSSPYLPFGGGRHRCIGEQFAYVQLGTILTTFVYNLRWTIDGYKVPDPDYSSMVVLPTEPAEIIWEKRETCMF

Row | SMILES | MIC80 (Candida albicans [1]) [µg/mL] | MIC80 (Nakaseomyces glabratus) [µg/mL] | MIC80 [2] [µg/mL] | MIC80 (Aspergillus fumigatus) [µg/mL] | MIC80 (Candida albicans [4]) [µg/mL] | MIC80 (Candida parapsilosis) [µg/mL] | MIC80 (Cryptococcus neoformans) [µg/mL] | MIC80 (Candida albicans [5]) [µg/mL] | MIC80 (Candida albicans [6]) [µg/mL] | hemolysis at 1 h, 100 microg/ml [7] [%] | MIC80 (Candida albicans [8]) [µg/mL] | MIC80 (Candida albicans [9]) [µg/mL] | MIC80 (Candida tropicalis) [µg/mL] | MIC80 (Candida albicans [11]) [µg/mL] | also measured
1 | OC(Cn1cncn1)(Cn1cncn1)c1ccc(F)cc1F [FLUCONAZOLE] | > 100 | 2.5 (≈ 8.16 µM) | 1.25 (≈ 4.08 µM) | > 100 | > 100 | 1.25 (≈ 4.08 µM) | 1.25 (≈ 4.08 µM) | > 100 | > 100 | 1.7 | 32 (≈ 104 µM) | > 100 | 2.5 (≈ 8.16 µM) | 0.5 (≈ 1.63 µM) | fold change (FC) (Candida albicans [3]): 10; selectivity ratio (CYP3A4): 25; inhibition (INH) [10]: 24.78%; fold change (FC) (Candida albicans [12]): 100; inhibition (INH) [13]: 17.61%
2 | OC(CN1CCN(CCCn2ccc3ccccc32)CC1)(Cn1cncn1)c1ccc(F)cc1F (configuration not stated) | 0.062 (≈ 0.129 µM) | 0.625 (≈ 1.3 µM) | 0.125 (≈ 0.26 µM) | 10 (≈ 20.8 µM) | 0.062 (≈ 0.129 µM) | 0.125 (≈ 0.26 µM) | 0.062 (≈ 0.129 µM) | 0.062 (≈ 0.129 µM) | 5 (≈ 10.4 µM) |  | 2.5 (≈ 5.2 µM) | 0.125 (≈ 0.26 µM) | 0.625 (≈ 1.3 µM) | 0.062 (≈ 0.129 µM) | 
3 | OC(CN1CCN(CCn2ccc3cc(Br)ccc32)CC1)(Cn1cncn1)c1ccc(F)cc1F (configuration not stated) | 0.015 (≈ 0.0275 µM) | 0.156 (≈ 0.286 µM) | 0.015 (≈ 0.0275 µM) | 0.625 (≈ 1.15 µM) | 0.015 (≈ 0.0275 µM) | 0.015 (≈ 0.0275 µM) | 0.015 (≈ 0.0275 µM) | 0.062 (≈ 0.114 µM) | 1.25 (≈ 2.29 µM) | 1.2 | 0.312 (≈ 0.572 µM) | 0.031 (≈ 0.0568 µM) | 0.156 (≈ 0.286 µM) | 0.015 (≈ 0.0275 µM) | Ratio (Candida albicans [14]): 4; Ratio (Candida albicans [15]): 4; Ratio (Candida albicans [16]): 32
4 | OC(CN1CCN(CCCn2ccc3cc(Cl)ccc32)CC1)(Cn1cncn1)c1ccc(F)cc1F (configuration not stated) | 0.062 (≈ 0.12 µM) | 0.312 (≈ 0.606 µM) | 0.125 (≈ 0.243 µM) | 5 (≈ 9.71 µM) | 0.062 (≈ 0.12 µM) | 0.062 (≈ 0.12 µM) | 0.031 (≈ 0.0602 µM) | 0.062 (≈ 0.12 µM) | 2.5 (≈ 4.85 µM) |  | 2.5 (≈ 4.85 µM) | 0.062 (≈ 0.12 µM) | 0.625 (≈ 1.21 µM) | 0.031 (≈ 0.0602 µM) | 
